Reference: patent US10342779B2 (Therapicon S.R.L., priority 2014, dated 2019)
Read-outs that look alike come from different tables or passages of the source.

Experiments:
[1] = dog, intravenous 3 mg/kg; cited from earlier work
[2] = rat, injected 5 mg/kg; cited from earlier work
[3] = dogs, oral 10 mg/kg; cited from earlier work
[4] = man, intravenous administration; cited from earlier work
[5] = monkeys, oral 10 mg/kg; cited from earlier work
[6] = monkey, intravenous 3 mg/kg; cited from earlier work
[7] = cited from earlier work
[8] = tested on: mouse-adapted DENV-2 strain D2S10; conditions: for Survival at day 20: IV, 19 days after challenge
[9] = rats, oral 10 mg/kg; cited from earlier work
CYP1A2 = target: T1, CYP1A2 (Homo sapiens, UniProt P05177); conditions: cited from earlier work
T1 sequence (P05177 1-516): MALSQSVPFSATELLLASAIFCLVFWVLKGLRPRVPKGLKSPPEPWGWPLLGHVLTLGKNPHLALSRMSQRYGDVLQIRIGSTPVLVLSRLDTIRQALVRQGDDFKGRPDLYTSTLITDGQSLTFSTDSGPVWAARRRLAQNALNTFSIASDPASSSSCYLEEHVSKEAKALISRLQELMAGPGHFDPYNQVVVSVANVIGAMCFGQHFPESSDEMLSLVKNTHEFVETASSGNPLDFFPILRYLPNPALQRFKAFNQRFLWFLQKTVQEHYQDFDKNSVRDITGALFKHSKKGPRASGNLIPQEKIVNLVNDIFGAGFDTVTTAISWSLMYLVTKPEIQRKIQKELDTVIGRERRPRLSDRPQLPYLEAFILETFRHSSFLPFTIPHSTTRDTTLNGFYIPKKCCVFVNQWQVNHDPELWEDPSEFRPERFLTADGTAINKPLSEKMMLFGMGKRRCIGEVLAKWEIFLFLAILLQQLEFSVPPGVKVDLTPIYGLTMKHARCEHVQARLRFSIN

[10] = cited from earlier work; remark: listed apart in the source

## COc1ccc2[nH]cc(CCNC(C)=O)c2c1 [Melatonin, N-acetyl-5-methoxytryptamine]
[1]
  apparent elimination half-life: 18.6 min
[2]
  apparent elimination half-life: 19.8 min
[3]
  absolute bioavailability: high
[4]
  elimination half-life: about 40 minutes
[5]
  absolute bioavailability: high
[6]
  apparent elimination half-life: 33.9 min
[7]
  solubility in water: 1200 to 2400 µg/mL
[8]; 75 mg/kg body weight
  Survival at day 20: 4/6
[8]; 100 mg/kg body weight
  Survival at day 20: 6/6
[8]; 150 mg/kg body weight
  Survival at day 20: 6/6
[8]; 100 and 150 mg/Kg/day, 19 days treatment
  protection effects versus Dengue virus induced condition: Complete survival
[9]
  absolute bioavailability: moderate
CYP1A2
  enzyme mediating 6-hydroxylation and O-demethylation: mainly CYP1A2 mediated
[10]; healthy volunteers, oral capsules 20, 30, 50, 100 mg, across all doses
  median (range) elimination half life: 51.7 (29.5-63.2) minutes
[10]; human
  unchanged melatonin renal clearance: lower than 1%
[10]; oral 3 mg/volunteer
  time of rapid decrease in serum melatonin: 240 min
  time to increase in serum melatonin after oral administration: ≤ 20 min
[10]; oral 100 mg
  half-life in blood: around 41 minutes
  time to maximum blood and saliva concentrations: 60 min
[10]; oral capsules 20 mg
  AUC: 1102 to 13616 ng/mL/min
[10]; oral capsules 30 mg
  AUC: 822 to 2491 ng/mL/min
[10]; oral capsules 50 mg
  AUC: 1812 to 8915 ng/mL/min
[10]; oral capsules 100 mg
  AUC: 4458 to 18229 ng/mL/min
[10]; oral, female
  absolute human bioavailability, average: 8.6%
[10]; oral, male
  absolute human bioavailability, average: 16.8%
[10]; oral
  absolute human bioavailability, range: 1-37%
  inter-subject variation of AUC of individual subjects: up to 25 times
